Reference: ChEMBL document CHEMBL5606460, “ASAP - DENV-2 NS2B-NS3 protease fluorescence single point” (2024)

Assays:
[1] = target: Genome polyprotein (dengue virus type 2) (UniProt P29990)
[2] = target: Genome polyprotein (dengue virus type 2) (UniProt P29990); conditions: Thailand/16681/1984, Concentration 25.0 uM, Number of replicates 1.0
[3] = Thailand/16681/1984, Concentration 50.0 uM, Number of replicates 1.0
[4] = Thailand/16681/1984, Concentration 100.0 uM, Number of replicates 1.0
[5] = Thailand/16681/1984, Concentration 150.0 uM, Number of replicates 1.0
[6] = Thailand/16681/1984, Concentration 200.0 uM, Number of replicates 1.0

Row | Compound | inhibition [1, 3] [%] | inhibition [1, 4] [%] | inhibition [1, 5] [%] | inhibition [1, 6] [%] | further results
1 | COCc1nn(CC#Cc2ccc(Cl)cc2)c(=O)o1 | -7.03 | 5.18 | -4.23 | 2.77 | 
2 | O=S(=O)(CCOc1ccccc1)c1nccs1 | -5.02 | -2.8 |  |  | 
3 | COc1ccc2c(O)nn(S(=O)(=O)c3ccc(C(=O)O)cc3)c2c1 |  | 5.93 |  | -6.38 | 
4 | Cn1ncnc1Sc1nc(C2CCCC2)ns1 | -3.66 | 5.27 | -9.35 | 3.96 | 
5 | CC[C@H]1CO[C@H](C)CN1c1ccc(C=O)cn1 |  |  |  |  | inhibition [2]: 41.1%
6 | c1cc(-c2nnc(NCc3nnn[nH]3)s2)no1 |  | -2.38 |  | -2.02 | 
7 | Cn1c(Sc2nc3ccccc3o2)nc2sccc2c1=O | -1.81 | 6.37 | -7.45 | -0.609 | 
8 | CN(C)c1ccc(C=C(C#N)C(N)=O)cc1 |  |  |  |  | inhibition [2]: 20.8%
9 | CCSc1nnc(SCCn2nc3ccccn3c2=O)s1 |  | 5.4 |  | 2.68 | 
10 | O=c1c2ccccc2ncn1CCCn1cnc2ccccc2c1=O |  | 4.08 |  | 1.74 | 
11 | Cc1c(C=O)c2ccccn2c1C(=O)c1ccncc1 |  |  |  |  | inhibition [2]: 41.1%
12 | O=c1ccc(-n2cncn2)nn1CC=Cc1ccccc1 | -6.72 | -7 |  | -8.49 | 
13 | O=c1[nH]c(CSc2ccccc2Cl)nc2ccsc12 | -5.28 | 18 | -7.62 | 26 | 
14 | N#Cc1ccc(S(=O)(=O)CCn2nc(-c3ccco3)oc2=O)cc1 | -4.79 | 5.55 |  | 2.14 | 
15 | O=c1c2ccccc2nnn1CSc1nnc(-c2ccccc2)o1 | 2.98 | 36.2 | 31.6 | 52.5 | 
16 | N=C(N)NCCC[C@H](NC(=O)c1nccs1)C(=O)N[C@@H](CCCCN)C(=O)N[C@@H](C(N)=O)c1ccc(OCc2ccc(C(F)(F)F)cc2)cc1 |  |  |  |  | inhibition ([1]; Thailand/16681/1984, Concentration 0.309 uM, Number of replicates 2.0, Standard deviation 3.0176373786002046 %): -3.85%; inhibition ([1]; Thailand/16681/1984, Concentration 0.926 uM, Number of replicates 2.0, Standard deviation 1.4110895026482932 %): 12.5%; inhibition ([1]; Thailand/16681/1984, Concentration 2.78 uM, Number of replicates 2.0, Standard deviation 1.2681150356250568 %): 36.5%; inhibition ([1]; Thailand/16681/1984, Concentration 8.33 uM, Number of replicates 2.0, Standard deviation 1.3787183923415196 %): 69.8%; inhibition ([1]; Thailand/16681/1984, Concentration 25.0 uM, Number of replicates 2.0, Standard deviation 1.0239143117161142 %): 89.5%
17 | Nc1ccc2ccc(B(O)O)cc2c1 |  |  |  |  | inhibition [2]: 15.2%
18 | O=C(NCc1nccs1)c1sccc1Cl | 0.507 | 4.39 | -3.58 | -1.05 | 
19 | Cc1sc2nc(-c3cccs3)[nH]c(=O)c2c1C | -5.01 | 0.922 |  | -9.15 | 
20 | Brc1cccc2cn(Cc3ncccn3)nc12 | -7.17 | 6.27 | -8.46 | 14.4 | 
21 | C[S@@+]([O-])c1nncn1Cc1ccc(Cl)s1 |  | 0.166 |  | -6.67 | 

Row | Compound | inhibition [1, 3] [%] | inhibition [1, 4] [%] | inhibition [1, 5] [%] | inhibition [1, 6] [%] | further results
22 | c1ccc2[nH]c(CC3CCN(Cc4nccs4)CC3)nc2c1 |  | -1.22 |  | -8.35 | 
23 | N#Cc1ccc(OCCn2nnn(-c3ccccc3)c2=O)cc1 | -7.79 | -0.08 | -4.33 | -2.04 | 
24 | NC(=O)c1ccc(Cn2nnc(C=Cc3ccccc3)n2)cc1 | -4.9 | 8.5 | 4.33 | 12.7 | 
25 | c1csc(-c2nnc(Sc3ncnc4sccc34)o2)c1 | -7.64 | 5.5 | 1.07 | 9.38 | 
26 | FC(F)(F)c1nnc(COc2cncnc2)s1 |  | -9.02 |  | -8.02 | 
27 | Cc1nc(C=O)c2ccccn12 |  |  |  |  | inhibition [2]: 33.3%
28 | Cc1nnc(CSc2ncnc3sccc23)o1 | 8.23 | 30.9 | 40.5 | 55 | 
29 | Nc1nc(S(=O)(=O)c2ccccc2)c(Cl)s1 |  | -1.35 |  |  | 
30 | O=c1ccn(Cc2cc(=O)n3ccccc3n2)c2ccsc12 | -1.76 | 3.86 | -8.57 | 4.39 | 
31 | c1nnc(SCCCSc2nncs2)s1 | -6.11 | -7.13 | -4.63 | -0.768 | 
32 | O=Cc1ccc(N2CCC(C(=O)O)CC2)cc1 |  |  |  |  | inhibition [2]: 47.6%
33 | O=c1ccccn1-c1ncc(Br)cn1 | -2.83 | -4.93 | -7.63 | 1.63 | 
34 | O=Cc1ccc(N2CCCCC2)cc1 |  |  |  |  | inhibition [2]: 37.1%
35 | O=C(NCc1ccco1)c1csc(Br)c1 | -4.81 | 6.83 |  | 0.818 | 
36 | O=c1c2cccn2cnn1Cc1cnc(Cl)s1 | -5.2 | 0.188 | -0.072 | 7.35 | 
37 | N=C(N)NCCC[C@H](NC(=O)[C@H](Cc1ccc(CN)cc1)NC(=O)c1ccccc1)B(O)O |  |  |  |  | inhibition ([1]; Thailand/16681/1984, Concentration 0.103 uM, Number of replicates 2.0, Standard deviation 1.1552277516231042 %): 13.2%; inhibition ([1]; Thailand/16681/1984, Concentration 0.309 uM, Number of replicates 2.0, Standard deviation 1.403761128919186 %): 39.2%; inhibition ([1]; Thailand/16681/1984, Concentration 0.926 uM, Number of replicates 2.0, Standard deviation 1.9316423333512027 %): 73.2%; inhibition ([1]; Thailand/16681/1984, Concentration 2.78 uM, Number of replicates 2.0, Standard deviation 0.6346068363669732 %): 91.6%; inhibition ([1]; Thailand/16681/1984, Concentration 8.33 uM, Number of replicates 2.0, Standard deviation 0.06829499639101128 %): 97.4%; inhibition ([1]; Thailand/16681/1984, Concentration 25.0 uM, Number of replicates 2.0, Standard deviation 0.08100823932985672 %): 98.5%
38 | Cc1cc(NS(=O)(=O)c2ccc(S(=O)(=O)F)cc2)c[nH]c1=O |  |  |  |  | inhibition [2]: 19.6%
39 | O=Cc1ccc(N2CCCCCC2)cc1 |  |  |  |  | inhibition [2]: 32.8%
40 | O=S(=O)(c1cccs1)N1CCN(CC=Cc2ccccc2)CC1 | -7.46 | 21.8 | -8.18 | 2.78 | 
41 | N#Cc1csc(CSc2nnc(C(F)(F)F)s2)n1 |  | -9.01 | -4.46 |  | 
42 | Clc1snnc1CN1CCC(c2nc3ccccc3o2)CC1 | -8.6 | 2.94 | -7.28 | 8.81 | 

Row | Compound | inhibition [1, 3] [%] | inhibition [1, 4] [%] | inhibition [1, 5] [%] | inhibition [1, 6] [%] | further results
43 | Cc1c(C=O)c2ccccn2c1C#N |  |  |  |  | inhibition [2]: 30.7%
44 | c1ccc(C2CCN(Cc3ccc4nccnc4c3)CC2)nc1 | -8.13 | 3.52 | -6.13 | -1.29 | 
45 | Brc1nc(Br)n(Cc2cscn2)n1 | -6.97 | 2.39 | -9.57 | -1.34 | 
46 | Cc1nnsc1Cn1ccc(Br)n1 | -5.41 | 0.654 | -3.97 | -4.2 | 
47 | Brc1ccsc1CSc1cnn[nH]1 | -4.71 | 11.3 |  | 11 | 
48 | Brc1cnn(C2CCN(Cc3csnn3)CC2)c1 | -3.22 | 5.64 |  | 5.63 | 
49 | O=C(O)c1sc2cccnc2c1Br | -8.71 | 12 |  | 2.09 | 
50 | O=S1(=O)CCN(CC#Cc2ccc3sncc3c2)CC1 |  | -9.23 |  | 2.54 | 
51 | COc1nc(Cl)c(CSc2nc(C)co2)s1 |  | 2.83 | -6.96 | 12.2 | 
52 | FC(F)(F)c1nc(CNCc2cocn2)cs1 |  | 1.67 | -9.44 | -3.73 | 
53 | c1cc2sccc2c(N2CCN(Cc3ccc4cn[nH]c4c3)CC2)n1 |  | 8.61 |  | -0.953 | 
54 | O=c1oc2cccnc2n1CC=Cc1ccccc1 |  | 18.7 | -5.05 | 16.8 | 
55 | [O-][S@@+](Cc1ncccn1)c1ncccc1Br | -6.39 | 2.18 | -5.36 | -0.101 | 
56 | [O-][S@@+](Cc1nc(-c2cccs2)no1)c1cccs1 | 0.907 | 3.98 |  | 5.82 | 
57 | c1csc(CSc2nnc(Cn3cncn3)o2)c1 |  | 4.46 |  | -3.48 | 
58 | c1ccc2nc(SCc3cn4ccccc4n3)cnc2c1 | -5.61 | 10.2 | 7.18 | 30.9 | 
59 | O=C(O)c1c(Br)sc2nnsc12 | -3.57 | -5.37 | -5.55 | 4.97 | 
60 | O=Cc1nc(-c2ccccc2Cl)n2ccccc12 |  |  |  |  | inhibition [2]: 20.2%
61 | O=Cc1ccc(N2CCC(C(=O)O)CC2)o1 |  |  |  |  | inhibition [2]: 40.9%
62 | Cc1nnnn1Cc1ncc(Br)s1 |  |  |  | -5 | 
63 | COC(=O)c1cc2scc(Br)c2[nH]1 | -5.44 | 11.7 |  | 7.72 | 
